Experimental data published in US6545131B1, “Tissue specific prodrug” (priority 1997, dated 2003).
Starred links: 1 amine or outer side, 2 acyl side, 3 side chain; linkers in the order of their positions; H or OH if unused. Residues, ends and D or L forms follow the SMILES beside them. *: point of attachment. Mu = morpholinocarbonyl, O=C(N1CCOCC1)*; AMC = Cc1cc(=O)oc2cc(N*)ccc12; Morpholide = C1CN(*)CCO1; CO = O=C([*:1])[*:2]; Dox = doxorubicin

Experiments:
[1] = Cytotoxic activity (LD50) of thapsigargin and debutanoyl derivative; assay type: cell-based
Experimental: The starting material for all the synthesized analogs is 8-O-debutanoylthapsigargin, which is easily available by triethylamine catalyzed methanolysis of thapsigargin. Removal of the butanoyl results in loss of cytotoxic activity with an LD50 of >50 μM compared to <100 nM for thapsigargin. Anhydrides of dicarboxylic acids of various lengths afforded analogs in which the acyl group attached to the O-8 ended in a free carboxylic acid. A dicyclohexylcarbodiimide (DCCI) promoted coupling of a 2,4-diaminoarene to the carboxylic acid analogs affords the derivatives in which contain a primary aromatic amine as a potential coupling point for additional moeities.

[2] = cited from earlier work
[3] = target: T1, endoplasmic reticulum Ca2+-ATPase (SERCA), SR vesicles from rabbit skeletal muscle (Oryctolagus cuniculus, UniProt P04191); assay: SERCA inhibition: 45Ca2+ uptake to sarcoplasmic reticulum vesicles; assay type: biochemical; settings: mean (n=3) ± standard error; 5 μg/ml SR protein, free Ca2+ 100 nM, 4 min uptake; read-out: IC50 (50% inhibition of 45Ca2+ uptake to SR vesicles)
T1 construct: sarcoplasmic reticulum (SR) vesicles prepared from rabbit skeletal muscle; from tissue; host or cells: rabbit skeletal muscle sarcoplasmic reticulum vesicles
Experimental: The primary amine-containing thapsigargin analogs of the invention have endoplasmic reticulum Ca^2+-ATPase inhibitory activity. This activity is measured as the concentration of analog needed to inhibit 50% of this ATPase (IC50). The IC50 of the analogs of the invention is desirably at most 500 nM, preferably at most 200 nM, and more preferably at most 50 nM of analog.
The inhibitory potency of thapsigargin and its analogs was determined as the concentration required to produce 50% inhibition (i.e. IC50) of ^45Ca^2+ uptake to sarcoplasmic reticulum (SR) vesicles prepared from rabbit skeletal muscle by the method of De Meis and Hasselbach (J. Biol. Chem., 246: 4759-4763, 1971). The ^45Ca^2+ uptake assay was as described previously (Christensen, et al., FEBS, 335: 345-348, 1993), with the following modifications: 5 μg/ml of SR protein was incubated at 25EC and free Ca^2+ adjusted to 100 nM using 4 min. uptake time. Under these conditions, Ca^2+ could proceed linearly with time for at least 8 minutes. Measurements of Ca^2+ within TSU cells was determined as described previously (Lin et al., The Prostate, 33:201-207, 1997).
The IC50 results are mean (n=3)±standard error. The LC50 results are mean (n=5)±standard error. The entry “ND” stands for “not determined”. Clonogenic survival not determined above 10 μM for dBTG. Analogs with −boc have a t-butoxycarbonyl (boc) protected amino group.

[4] = target: sarcoplasmic reticulum (SR) and endoplasmic reticulum (ER) Ca2+-ATPase (SERCA) pump; settings: read-out: apparent dissociation constant; cited from earlier work
[5] = Clonogenic survival of TSU-Pr1 cells after 72 hours exposure to TG analogs; assay type: cell-based, human; settings: human; TSU-Pr1, 72 hours exposure; mean (n=5) ± standard error; read-out: LC50 (concentration needed to kill 50% of clonogenic cells)
Summary of the method: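 Androgen-independent human prostate cancer TSU-Pr1 cells (2×10^5) were exposed for 72 h to varying thapsigargin analog concentrations, and clonogenic survival was then assessed. LC50 is the concentration killing 50% of clonogenic cells, reported as mean of n=5 ± SE.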

Cathepsin B = target: T2, Cathepsin B (Homo sapiens, UniProt P07858); assay: PSA substrate cleavage by purified intracellular protease; assay type: biochemical; settings: 0.2 mM substrate, pH 7.8; SKLQ, KLQ, LQ in 1.4% acetonitrile/buffer, Q-AMC in 0.2% formic acid/buffer
T2 construct: purchased Sigma Chemical Co
Experimental: (§1) Cleavage was studied by measuring fluorescence change secondary to AMC release. Fluorescence detection was carried out with a Fluoroskan II 96 well fluorometric plate reader (ICN Biomedicals, Costa Mesa, Calif.), with excitation wavelength 355 nm and emission wavelength 460 nm. Data were collected and analyzed using Deltasoft III software (Biometallics, Princeton, N.J.). All reactions were performed at room temperature by the addition of substrate and proteases into PSA buffer, described below, in a final volume of 200 μL. The results were determined from the initial linear increase of fluorescence and were expressed as the picomoles of AMC released per minute based upon comparison to a standard curve of the fluorescence of known amounts of AMC (i.e., fluorescence was linear form 20 to 300 picomoles of AMC). The data were analyzed by Lineweaver-Burke reciprocal plots to determine the Michaelis-Menten constant (i.e., Km) expressed as the amount of substrate needed to saturate half of the enzyme and the catalytic rate constant (i.e., kcat) expressed as the amount of substrate converted to product per time per amount of enzyme.
(§2) A family of peptide substrates based upon the EHSSKLQ (SEQ ID NO:10) sequence was assayed for activity for the intracellular proteases, and the results given in Table 4.
(§3) The amino acid sequences expressed in one letter amino acid code represent the following amino acid sequences in the three letter amino acid code: EHSSKLQ (Glu-His-Ser-Ser-Lys-Leu-Gln; SEQ ID NO:10), The shorter sequences are formed by deleting amino acids from the amino terminal side of the sequence. Determinations listed in the table were carried out with substrates at 0.2 mM concentration in the PSA assay buffer (50 mM Tris/0.1M NaCl pH 7.8), except SKLQ (SEQ ID NO:1), KLQ and LQ, which were carried out in 1.4% acetonitrile/buffer and Q-AMC which was carried out in 0.2% formic acid/buffer, at pH 7.8. The entry “UD” stands for “undetectable” and means that at most, 0.1 pmole of substrate cleavage per minute per 200 pmole protease took place. Asterisks represent experiments not performed. Abbreviations are as follows: PSA (prostate specific antigen), Cath B, C, D (Cathepsins, B, C, D), Esterase (porcine liver esterase).

porcine liver esterase = assay: as above; assay type: biochemical; settings: 0.2 mM substrate, pH 7.8; SKLQ, KLQ, LQ in 1.4% acetonitrile/buffer, Q-AMC in 0.2% formic acid/buffer
Experimental: as §1, §2, §3

Cathepsin D = target: T3, Cathepsin D (Homo sapiens, UniProt P07339); assay: as above; assay type: biochemical; settings: 0.2 mM substrate, pH 7.8; SKLQ, KLQ, LQ in 1.4% acetonitrile/buffer, Q-AMC in 0.2% formic acid/buffer
T3 construct: purchased Sigma Chemical Co
Experimental: as §1, §2, §3

Cathepsin C = target: T4, Cathepsin C (Homo sapiens, UniProt P53634); assay: as above; assay type: biochemical; settings: 0.2 mM substrate, pH 7.8; SKLQ, KLQ, LQ in 1.4% acetonitrile/buffer, Q-AMC in 0.2% formic acid/buffer
T4 construct: purchased Sigma Chemical Co
Experimental: as §1, §2, §3

[6] = target: T5, PSA (prostate specific antigen) (Homo sapiens, UniProt P07288); assay: Cleavage of AMC-labelled peptide substrates by purified PSA (fluorescence of released AMC; Lineweaver-Burke kinetics); assay type: biochemical
T5 construct: PSA was purified from human seminal plasma; from tissue; host or cells: human seminal plasma

Elastase = assay: Peptide-AMC cleavage by purified extracellular protease; assay type: biochemical; settings: 0.2 mM substrate, PSA assay buffer pH 7.8
Plasmin = target: T6, Plasmin (Homo sapiens, UniProt P00747); assay: as above; assay type: biochemical; settings: 0.2 mM substrate, PSA assay buffer pH 7.8
T6 construct: purchased Calbiochem

human kallikrein, hK1 = assay: as above; assay type: biochemical; settings: 0.2 mM substrate, PSA assay buffer pH 7.8
chymotrypsin = target: T7, chymotrypsin (Bos taurus, UniProt P00766); assay: as above; assay type: biochemical; settings: 0.2 mM substrate, PSA assay buffer pH 7.8
T7 construct: purchased Sigma Chemical Co

urokinase = target: T8, urokinase (Homo sapiens, UniProt P00749); assay: as above; assay type: biochemical; settings: 0.2 mM substrate, PSA assay buffer pH 7.8
T8 construct: purchased Calbiochem

Trypsin = assay: as above; assay type: biochemical; settings: 0.2 mM substrate, PSA assay buffer pH 7.8
thrombin = target: T9, thrombin (Homo sapiens, UniProt P00734); assay: as above; assay type: biochemical; settings: 0.2 mM substrate, PSA assay buffer pH 7.8
T9 construct: purchased Sigma Chemical Co

[7] = target: T10, tissue plasminogen activator (TPA) (Homo sapiens, UniProt P00750); assay: as above; assay type: biochemical; settings: 0.2 mM substrate, PSA assay buffer pH 7.8
T10 construct: purchased Calbiochem

[8] = Stability of PSA substrates in serum (AMC release); assay type: in vitro ADME; settings: 0.2 mM substrate
TSU-Pr1 cells = assay: Clonogenic survival of TSU-Pr1 cells after 48 hr exposure to doxorubicin prodrugs with or without exogenously added PSA; assay type: cell-based, human; settings: 50 μM prodrug
Experimental: The androgen responsive PSA-producing LNCaP and androgen independent PSA non-producing TSU-Pr1 are human prostate cancer lines were obtained from ATCC (Rockville, Md.) and maintained by serial passage in RPMI 1640 media containing 10% fetal calf serum with 100 units/ml penicillin G, and 100 units/ml streptomycin sulfate (antibiotics from M.A. Bioproducts, Walkerville, Md.) as standard media in 5% CO2/95% air at 37° C. The origins and characteristics of the LNCaP and TSU-Pr1 cell lines are described in Horoszewicz, et al., Cancer Res., 43:1809-1818, (1980)and Iizumi, et al., J. Urol, 137: 1304-1306, (1987).
Percentage clonogenic survival of TSU-Pr1 (2×10^5 cells) following 48 hr. exposure to varying concentrations of doxorubicin prodrugs with or without exogenously added PSA was performed as described in Martikainen et al., Cancer Res., 51:4693-4700, (1991).
Results for Mu-His-Ser-Ser-Lys-Leu-Gln-doxorubicin (SEQ ID NO:16) at 50 μM, were 122 colonies for treatment without PSA, and 110 colonies for treatment with 30 μg/ml enzymatically active PSA. Results are shown as averages (n=5) with standard error of 2 to 7. Assays were done in triplicate.

[9] = PSA substrate, PSA assay buffer pH 7.8, Lineweaver-Burke

T5 sequence (P07288 25-261): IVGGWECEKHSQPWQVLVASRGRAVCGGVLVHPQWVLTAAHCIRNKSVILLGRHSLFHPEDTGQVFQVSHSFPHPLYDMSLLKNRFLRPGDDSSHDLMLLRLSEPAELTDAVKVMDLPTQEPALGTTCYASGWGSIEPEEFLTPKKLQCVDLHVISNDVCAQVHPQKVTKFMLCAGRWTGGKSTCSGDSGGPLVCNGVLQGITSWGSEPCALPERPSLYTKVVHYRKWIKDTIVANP
T1 sequence (P04191 1-994 isoform P04191-2): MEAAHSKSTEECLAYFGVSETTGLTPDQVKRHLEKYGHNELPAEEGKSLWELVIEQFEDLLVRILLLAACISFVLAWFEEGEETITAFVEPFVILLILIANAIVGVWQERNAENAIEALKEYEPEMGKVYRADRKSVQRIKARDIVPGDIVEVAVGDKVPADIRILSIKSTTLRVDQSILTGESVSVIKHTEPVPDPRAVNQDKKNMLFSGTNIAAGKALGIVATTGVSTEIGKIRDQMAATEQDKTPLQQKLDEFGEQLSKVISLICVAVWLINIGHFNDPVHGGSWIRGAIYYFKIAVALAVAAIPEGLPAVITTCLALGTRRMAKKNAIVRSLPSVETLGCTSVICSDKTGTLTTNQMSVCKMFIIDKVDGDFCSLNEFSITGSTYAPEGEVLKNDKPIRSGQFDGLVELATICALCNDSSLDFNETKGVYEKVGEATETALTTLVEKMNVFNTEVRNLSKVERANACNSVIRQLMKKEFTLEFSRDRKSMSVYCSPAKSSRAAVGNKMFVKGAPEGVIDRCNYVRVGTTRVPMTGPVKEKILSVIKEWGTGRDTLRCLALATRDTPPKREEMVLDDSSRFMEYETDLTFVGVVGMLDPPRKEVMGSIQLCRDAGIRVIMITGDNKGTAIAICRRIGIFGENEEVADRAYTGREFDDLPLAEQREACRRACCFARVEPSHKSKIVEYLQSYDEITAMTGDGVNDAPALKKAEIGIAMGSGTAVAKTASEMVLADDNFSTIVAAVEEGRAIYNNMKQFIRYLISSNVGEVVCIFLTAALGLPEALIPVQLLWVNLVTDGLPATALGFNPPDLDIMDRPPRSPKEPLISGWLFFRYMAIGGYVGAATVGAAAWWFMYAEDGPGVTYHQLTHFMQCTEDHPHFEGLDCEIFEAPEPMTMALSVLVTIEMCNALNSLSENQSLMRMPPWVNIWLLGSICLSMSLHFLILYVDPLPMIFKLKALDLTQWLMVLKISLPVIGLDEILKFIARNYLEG
T4 sequence (P53634 25-463): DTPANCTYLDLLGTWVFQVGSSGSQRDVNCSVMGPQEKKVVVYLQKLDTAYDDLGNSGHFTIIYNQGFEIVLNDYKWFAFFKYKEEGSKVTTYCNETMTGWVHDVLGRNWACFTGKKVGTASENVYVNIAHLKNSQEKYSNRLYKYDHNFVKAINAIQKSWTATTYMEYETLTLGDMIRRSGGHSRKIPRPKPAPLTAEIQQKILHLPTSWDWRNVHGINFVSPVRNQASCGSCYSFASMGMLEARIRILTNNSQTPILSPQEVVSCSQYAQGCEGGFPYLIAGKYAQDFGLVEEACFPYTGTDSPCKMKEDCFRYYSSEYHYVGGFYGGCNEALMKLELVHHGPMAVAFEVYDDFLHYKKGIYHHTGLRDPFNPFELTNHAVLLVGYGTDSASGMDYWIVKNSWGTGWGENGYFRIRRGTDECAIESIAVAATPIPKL
T6 sequence (P00747 581-810 limits assumed, species assumed): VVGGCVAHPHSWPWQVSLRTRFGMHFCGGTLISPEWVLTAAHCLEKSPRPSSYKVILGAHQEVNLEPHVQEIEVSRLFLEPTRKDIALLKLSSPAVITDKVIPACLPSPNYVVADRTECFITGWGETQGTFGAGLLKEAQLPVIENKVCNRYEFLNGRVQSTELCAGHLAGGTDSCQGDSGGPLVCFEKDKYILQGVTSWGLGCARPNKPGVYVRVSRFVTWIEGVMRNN
T6 sequence (P00747 97-580 partner limits assumed, species assumed): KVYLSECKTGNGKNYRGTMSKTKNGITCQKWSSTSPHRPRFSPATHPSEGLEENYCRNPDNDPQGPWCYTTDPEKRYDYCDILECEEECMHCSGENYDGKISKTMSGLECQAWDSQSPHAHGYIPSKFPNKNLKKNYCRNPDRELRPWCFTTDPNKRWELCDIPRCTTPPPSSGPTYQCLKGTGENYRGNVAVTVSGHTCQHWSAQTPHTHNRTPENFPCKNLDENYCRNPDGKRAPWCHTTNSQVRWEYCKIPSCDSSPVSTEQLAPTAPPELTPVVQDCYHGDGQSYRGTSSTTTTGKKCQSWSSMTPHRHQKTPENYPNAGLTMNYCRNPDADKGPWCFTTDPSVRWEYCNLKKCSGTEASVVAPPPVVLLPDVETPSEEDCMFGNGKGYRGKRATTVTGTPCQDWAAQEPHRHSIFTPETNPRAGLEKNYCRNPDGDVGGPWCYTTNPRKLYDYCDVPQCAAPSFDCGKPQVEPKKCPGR
T3 sequence (P07339 65-412): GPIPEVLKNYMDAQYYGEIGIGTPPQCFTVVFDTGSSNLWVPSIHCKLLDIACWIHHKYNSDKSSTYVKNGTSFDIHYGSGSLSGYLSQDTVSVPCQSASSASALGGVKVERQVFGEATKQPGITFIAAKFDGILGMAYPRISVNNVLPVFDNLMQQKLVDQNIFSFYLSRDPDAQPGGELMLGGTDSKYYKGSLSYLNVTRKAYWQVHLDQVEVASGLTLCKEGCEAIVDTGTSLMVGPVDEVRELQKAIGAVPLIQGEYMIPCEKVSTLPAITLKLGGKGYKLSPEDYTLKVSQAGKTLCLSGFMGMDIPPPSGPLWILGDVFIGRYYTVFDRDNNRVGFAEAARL
T10 sequence (P00750 36-562, species assumed): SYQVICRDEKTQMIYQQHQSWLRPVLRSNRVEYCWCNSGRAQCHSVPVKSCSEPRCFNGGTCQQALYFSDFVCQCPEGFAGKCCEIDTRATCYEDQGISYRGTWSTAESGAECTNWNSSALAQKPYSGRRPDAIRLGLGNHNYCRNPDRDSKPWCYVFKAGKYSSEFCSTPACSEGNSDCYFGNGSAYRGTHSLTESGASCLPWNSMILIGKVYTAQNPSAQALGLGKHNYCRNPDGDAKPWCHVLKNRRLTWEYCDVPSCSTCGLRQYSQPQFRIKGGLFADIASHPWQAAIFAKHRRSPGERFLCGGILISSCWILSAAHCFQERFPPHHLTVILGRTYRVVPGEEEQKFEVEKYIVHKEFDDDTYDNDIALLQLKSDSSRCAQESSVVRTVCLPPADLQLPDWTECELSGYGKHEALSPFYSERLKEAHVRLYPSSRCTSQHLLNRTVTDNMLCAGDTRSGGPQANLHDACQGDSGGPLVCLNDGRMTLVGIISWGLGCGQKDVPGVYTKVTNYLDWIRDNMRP

## C/C=C(/C)C(=O)O[C@H]1C(C)=C2[C@H]([C@@H]1OC(=O)CCCCCCC)[C@@](C)(OC(C)=O)C[C@H](OC(=O)CCC)[C@@]1(O)[C@H]2OC(=O)[C@@]1(C)O [TG, Thapsigargin]
[1]
  LD50 (cytotoxic activity): < 0.1 µM
[2]
  solubility in water: poorly soluble in water
[3]
  IC50: 5 ± 0.3 nM
[4]
  Kd: ≤ 0.0022 nM
[5]
  CC50: 30 ± 4 nM

## C/C=C(/C)C(=O)O[C@H]1C(C)=C2[C@H]([C@@H]1OC(=O)CCCCCCC)[C@@](C)(OC(C)=O)C[C@H](O)[C@@]1(O)[C@H]2OC(=O)[C@@]1(C)O [dBTG, 8-O-debutanoylthapsigargin, reference compound]
[1]
  LD50 (cytotoxic activity): > 50 µM
[3]
  IC50: 149 ± 21 nM
[5]
  CC50: > 10000 nM

## Cc1cc(=O)oc2cc(NC(=O)[C@H](CCC(N)=O)NC(=O)[C@H](CC(C)C)NC(=O)[C@H](CCCCN)NC(=O)[C@H](CO)NC(=O)[C@H](CO)NC(=O)[C@H](Cc3c[nH]cn3)NC(=O)[C@H](CCC(=O)O)NC(=O)N3CCOCC3)ccc12 [EHSSKLQ, Glu-His-Ser-Ser-Lys-Leu-Gln] ({Morpholide-CO}-EHSSKLQ-{AMC})
Cathepsin B
  picomoles of peptide cleaved/min/200 picomoles protease: Cath B: 4.3 picomoles/min/200 picomoles pr
Porcine liver esterase
  picomoles of peptide cleaved/min/200 picomoles protease: Esterase: UD (at most, 0.1 pmole of substrate cleavage per minute per 200 pmole protease took place)
Cathepsin D
  picomoles of peptide cleaved/min/200 picomoles protease: Cath D: 2.2 picomoles/min/200 picomoles pr
Cathepsin C
  picomoles of peptide cleaved/min/200 picomoles protease: Cath C: UD (at most, 0.1 pmole of substrate cleavage per minute per 200 pmole protease took place)
[6]; 0.2 mM substrate, PSA assay buffer pH 7.8, room temperature
  Picomoles of substrate cleaved/minute/200 pmoles of indicated protease: PSA: 31.6 picomoles/minute/200 pmoles pr
[6]; 0.2 mM substrate, pH 7.8, SKLQ, KLQ, LQ in 1.4% acetonitrile/buffer, Q-AMC in 0.2% formic acid/buffer
  picomoles of peptide cleaved/min/200 picomoles protease: PSA: 31.6 picomoles/min/200 picomoles pr
[6]; [9]
  Kcat: 0.02 s⁻¹
  Km: 1160 µM
Elastase
  Picomoles of substrate cleaved/minute/200 pmoles of indicated protease: Elastase: UD (at most, 0.1 pmole of substrate cleavage per minute per 200 pmole protease took place)
Plasmin
  Picomoles of substrate cleaved/minute/200 pmoles of indicated protease: Plasmin: UD (at most, 0.1 pmole of substrate cleavage per minute per 200 pmole protease took place)
Human kallikrein, hK1
  Picomoles of substrate cleaved/minute/200 pmoles of indicated protease: Kallik: UD (at most, 0.1 pmole of substrate cleavage per minute per 200 pmole protease took place)
chymotrypsin
  Picomoles of substrate cleaved/minute/200 pmoles of indicated protease: Chymo: UD (at most, 0.1 pmole of substrate cleavage per minute per 200 pmole protease took place)
urokinase
  Picomoles of substrate cleaved/minute/200 pmoles of indicated protease: Urokin: UD (at most, 0.1 pmole of substrate cleavage per minute per 200 pmole protease took place)
Trypsin
  Picomoles of substrate cleaved/minute/200 pmoles of indicated protease: Trypsin: UD (at most, 0.1 pmole of substrate cleavage per minute per 200 pmole protease took place)
thrombin
  Picomoles of substrate cleaved/minute/200 pmoles of indicated protease: Thromb: UD (at most, 0.1 pmole of substrate cleavage per minute per 200 pmole protease took place)
[7]
  Picomoles of substrate cleaved/minute/200 pmoles of indicated protease: TPA: UD (at most, 0.1 pmole of substrate cleavage per minute per 200 pmole protease took place)
[8]
  picomles AMC released/minute: Calf: UD (not more than 0.01 picomole of substrate per minute was cleaved)
  picomles AMC released/minute: Fetal Calf: UD (not more than 0.01 picomole of substrate per minute was cleaved)
  picomles AMC released/minute: Goat: UD (not more than 0.01 picomole of substrate per minute was cleaved)
  picomles AMC released/minute: Mouse: 2.17 picomoles/minute
  picomles AMC released/minute: Rat: 0.06 picomoles/minute
[8]; human serum 100%
  picomles AMC released/minute: Human: UD (not more than 0.01 picomole of substrate per minute was cleaved)

## Mu-His-Ser-Ser-Lys-Leu-Gln-doxorubicin (Mu-HSSKLQ-Dox; listed as Homo sapiens) [doxorubicin prodrug without Leu linker; b202 describes it as acetyl-capped]
TSU-Pr1 cells; with 30 μg/ml PSA
  number of TSU-Pr1 colonies, treatment with 30 μg/ml enzymatically active PSA: 110 colonies
TSU-Pr1 cells; without PSA
  number of TSU-Pr1 colonies, treatment without PSA: 122 colonies
